Marks after values point to notes of the source that are not given here.
Test system: C57Bl/6 male mice on a high fat diet (HFD)
Assay: High-fat diet (HFD) mice treated with CL2-57
Format: in vivo, mouse
Procedure: High-Fat Diet and Drug Treatment. C57Bl/6 male mice (Jackson Laboratories) were placed on a high fat diet (HFD) (60% kcal from fat, Envigo) at 5 weeks. At 10 weeks, mice were acclimated to hydrogel replacement of drinking water (Clear H2O) for 3 days. Then, for six weeks while HFD continued, mice received 10 mg/kg CL2-57 oral gavage Mon/Wed/Fri (vehicle: 9.5% PEG-200, 5% DMSO, 0.1% polysorbate 80 in water) plus 10 mg/kg/day CL2-57 in continuous hydrogel, or vehicle control. Mice were weighed weekly. For fast-refed studies, mice fasted for 16 hours, then refed for 4 hours. Blood glucose was measured with handheld glucometer. Sample size, chosen based on previous experience with glucose tolerance test, was ten mice per treatment. Mice were assigned to treatment groups by cage randomization upon arrival from Jackson Laboratories. Mice were assigned a unique ear tag number to enable blinded tissue analysis and data collection. Treatment and in vivo experimentation were not blinded. No animals were excluded from analysis, and no control for confounders such as cage location or treatment order was performed.
Plasma/Liver Triglycerides. Blood was collected in EDTA-coated tubes (Becton Dickinson) and centrifuged (3500 rpm, 15 minutes) to separate plasma. Livers were flash frozen in liquid nitrogen, then stored at −80° C. until homogenization in isopropanol. Triglyceride levels were measured using reagents from Wako Diagnostics per manufacturer's protocol.
Glucose Tolerance Test (GTT). After 16-hour fast, animals were administered 1.5 g/kg body weight (bwt) glucose by intraperitoneal (i.p.) injection. Glucose in tail vein blood was measured at 0, 10, 20, 30, 45, 60, and 120 minutes using a ONETOUCH® […]® glucometer (LifeScan, Inc). Additional blood was collected at multiple points between 0-30 minutes in heparinized capillary tubes and centrifuged, with plasma insulin levels determined by ELISA (ALPCO).
Insulin Sensitivity Studies. Mice were injected with 1 U/kg bwt HUMALOG® insulin or vehicle (n=3 of each per treatment group) 15 minutes before sacrifice. Liver, subcutaneous fat, and gastrocnemius were collected and homogenized in lysis buffer (50 mM Tris-HCl (pH 7.4), 100 mM NaCl, 1 mM EDTA, 1 mM EGTA, 1% Triton™ X-100, with protease/phosphatase inhibitor (Complete, Roche)). Protein concentration was determined using Bradford reagent (Bio-Rad). Denatured protein (30 μg) was separated by SDS-PAGE (Mini-PROTEAN® TGX™ Gels 10%, Bio-Rad) and transferred to 0.45 μm nitrocellulose membranes. Membranes were blocked with 5% skim milk in TBST (1×TBS+0.1% polysorbate 20) for 1 hour, incubated with primary antibodies overnight at 4° C., washed with TBST, and incubated with horseradish peroxidase (HRP)-linked secondary antibodies for 1 hour. After TBST wash, Clarity™ Western ECL Substrate (Bio-Rad) was added. Blots were imaged and analyzed using a ChemiDoc™ MP and Image Lab Ver 6.0 (Bio-Rad). Protein levels were normalized to GAPDH (muscle) or β-actin (liver, adipose) for quantification. Primary antibodies: Cell Signaling Technology 4060 (pS473Akt, RRID:AB_2315049), 13038 (pT308Akt, RRID:AB_2629447), 4691 (pan-Akt, RRID:AB_915783), 5174 (GAPDH, RRID:AB 10622025) and Sigma A2228 (3-actin, RRID:AB_476697).
qRT-PCR. For cell samples, treated cells were lysed with RLT plus lysis buffer (Qiagen). RNA was isolated with Qiagen RNEASY® Plus columns per manufacturer instructions, then reverse-transcribed to cDNA using […]® III Reverse Transcriptase (200 U/μL, Invitrogen) per supplier protocol. qPCR experiments were either performed with TAQMAN® gene expression master mix (Invitrogen) on a StepOne™ qPCR instrument or with […]® SYBR® Green SuperMix (Quanta Biosciences) on CFX Connect™ Real-Time PCR Detection System (BioRad), with fold-change quantified by ΔΔCt. […]

[1] = HFD mice, compared to vehicle control
[2] = plasma, fold change with CL2-57 vs. vehicle in HFD mice

Structure (SMILES): CCOC(=O)c1cccc(NC(=O)c2sc(Cl)cc2S(=O)(=O)N(C)c2ccc(OCC)c(OCC)c2)c1 [CL2-57, ethyl 3-(5-chloro-3-(N-(3,4-diethoxyphenyl)-N-methylsulfamoyl)thiophene-2-carboxamido) benzoate]
- Attenuation of HFD increases of plasma proinflammatory lipid mediators (lysophospholipids) (HFD mice): 20-60%
- Brown adipose or liver mass (HFD mice): no change
- Fall of liver mRNA encoding PPARα (HFD mice): 75%
- Gluconeogenic metabolites (HFD mice): reduced
- HFD increase of NO precursors arginine and guanidinosuccinate (HFD mice): reversed
- HFD-increased liver oxysterol metabolites 7-hydroxycholesterol and 4-cholesten-3-one (HFD mice): reversed
- Insulin secretion during the first 20 minutes of the GTT (HFD mice): negligible change
- Liver Abcg1 expression (HFD mice): unchanged
- Liver Abcg5 expression (HFD mice): significantly reduced
- Liver Cyp7-a1 mRNA (HFD mice): diminishing trend
- Liver Lpcat3 expression (HFD mice): significantly reduced
- Liver Scd1 expression (HFD mice): significantly reduced
- Liver Srebf1 mRNA (HFD mice): small increase
- Liver cholesterol (reduced in HFD mice) (HFD mice): normalized to baseline
- Liver free fatty acid (FFA) concentrations reduced by (HFD mice): 40-90%
- Plasma FFAs decreased (HFD mice): 5-20%
- Plasma levels of cholesterol and oxysterol metabolites (HFD mice): unaffected
- Tissue mass composition by TD-NMR (HFD mice): shifted tissue mass from fat to lean
- Circulating arachidonic acid (AA) increase over diet controls (HFD mice treated with CL2-57, vehicle 120%): 37%
- Blood glucose concentrations following single i.p. glucose injection (HFD mice, GTT, vs vehicle): lower
- Glucose tolerance test, total area under the curve reduced by (HFD mice, after five weeks, 2-hour test): 20%
- Decrease in plasma TGs [1]: 25%
- Decrease of liver G6PC expression [1]: 73%
- Decrease of liver Pck1 expression [1]: 70%
- HFD increases of the four gluconeogenic precursors, in particular glutamine and glycerol [1]: attenuated
- Liver triglycerides (TGs) reduced by [1]: 35%
- Fasting/refed glucose and insulin levels (HFD mice, initially): Little change
- Adipose Akt phosphorylation (HFD mice, insulin challenge): No treatment effect
- Liver Akt phosphorylation at Ser473 with insulin (HFD mice, insulin challenge): did not change
- Liver Akt phosphorylation at Thr308 with insulin (HFD mice, insulin challenge): increased
- Skeletal muscle insulin sensitivity versus vehicle (HFD mice, insulin challenge): dramatically increased
- Mature, nuclear form of SREBP1c protein (HFD mice, liver): unchanged
- Uncleaved, endoplasmic reticulum form of SREBP1c protein (HFD mice, liver): corresponding increase
- mRNA levels of proinflammatory enzymes, cytokines and chemokines (COX2, NOS2, TNFα, IL-6, CCL2, CXCL10) (HFD mice, liver and adipose): substantially lowered
- Liver ABCA1 protein (HFD mice, liver homogenates): increased
- Liver Abca1 expression (HFD mice, liver homogenates): increased
- Lean tissue mass (HFD mice, on average): gained
- Weight gain (HFD mice, over six weeks, vehicle 17%): 8 % of baseline
- White adipose tissue mass reduced by, proportional to body weight (HFD mice, visceral (renal) and superficial (inguinal) fat pads): > 20%
- Liver monoacylglycerols (MAGs) decreased (compared to HFD alone): 83-97%
- Creatinine, urea, and bilirubin (markers of global inflammation and/or organ toxicity): unaffected
- 1-Arachidonoyl-GPA (20:4), HED Drug/ Chow Veh [2]: 0.65^†
- 1-Arachidonoyl-GPC (20:4n6), HED Drug/ Chow Veh [2]: 0.73^††
- 1-Arachidonoyl-GPE (20:4n6), HED Drug/ Chow Veh [2]: 0.73^††
- 1-Arachidonoyl-GPI (20:4), HED Drug/ Chow Veh [2]: 0.75^†
- 1-Lignoceroyl-GPC (24:0), HED Drug/ Chow Veh [2]: 0.99
- 1-Linolenoyl-GPC (18:3), HED Drug/ Chow Veh [2]: 0.85
- 1-Linoleoyl-GPA (18:2), HED Drug/ Chow Veh [2]: 0.57^††
- 1-Linoleoyl-GPC (18:2), HED Drug/ Chow Veh [2]: 0.81^†
- 1-Linoleoyl-GPE (18:2), HED Drug/ Chow Veh [2]: 0.81
- 1-Linoleoyl-GPG (18:2), HED Drug/ Chow Veh [2]: 0.75^†
- 1-Linoleoyl-GPI (18:2), HED Drug/ Chow Veh [2]: 0.72
- 1-Linoleoyl-GPS (18:2), HED Drug/ Chow Veh [2]: 0.39^††
- 1-Oleoy1-GPI (18:1), HED Drug/ Chow Veh [2]: 0.58^†
- 1-Oleoyl-GPC (18:1), HED Drug/ Chow Veh [2]: 0.84
- 1-Oleoyl-GPE (18:1), HED Drug/ Chow Veh [2]: 0.79
- 1-Oleoyl-GPS (18:1), HED Drug/ Chow Veh [2]: 0.62^†
- 1-Palmitoleoyl-GPC (16:1), HED Drug/ Chow Veh [2]: 0.81
- 1-Palmitoyl-GPA (16:0), HED Drug/ Chow Veh [2]: 0.64^††
- 1-Palmitoyl-GPC (16:0), HED Drug/ Chow Veh [2]: 0.83^†
- 1-Palmitoyl-GPE (16:0), HED Drug/ Chow Veh [2]: 0.95
- 1-Palmitoyl-GPI (16:0), HED Drug/ Chow Veh [2]: 0.56^††
- 1-Palmitoyl-GPS (16:0), HED Drug/ Chow Veh [2]: 0.77
- 1-Stearoyl-GPC (18:0), HED Drug/ Chow Veh [2]: 0.94
- 1-Stearoyl-GPE (18:0), HED Drug/ Chow Veh [2]: 0.91
- 1-Stearoyl-GPI (18:0), HED Drug/ Chow Veh [2]: 0.82
- 2-Palmitoleoyl-GPC (16:1), HED Drug/ Chow Veh [2]: 1.08
- 2-Palmitoyl-GPC (16:0), HED Drug/ Chow Veh [2]: 0.81
- 2-Stearoyl-GPE (18:0), HED Drug/ Chow Veh [2]: 0.74^††
- Docosahexaenoate (DPA; 22:6n3), HED Drug/ Chow Veh [2]: 0.76
- Docosapentaenoate (n3 DPA; 22:5n3), HED Drug/ Chow Veh [2]: 0.60^†
- Docosapentaenoate (n6 DPA; 22:5n6), HED Drug/ Chow Veh [2]: 0.92
- Eicosapentaenoate (EPA; 20:5n3), HED Drug/ Chow Veh [2]: 0.60^†
- Sphingadienine, HED Drug/ Chow Veh [2]: 0.55^††
- Sphinganine, HED Drug/ Chow Veh [2]: 0.67^††
- Sphinganine-1-phosphate, HED Drug/ Chow Veh [2]: 0.73
- Sphingosine, HED Drug/ Chow Veh [2]: 0.73
- Sphingosine-1-phosphate, HED Drug/ Chow Veh [2]: 0.93
